We go through two molecules from patent publication US6399335B1, “γ-phosphoester nucleoside triphosphates” (Advanced Research and Technology Institute, Inc., priority 1999, dated 2002).

Each structure is given as a SMILES string.

Data set [1] concerns the target T7 DNA-dependent RNA polymerase (Escherichia phage T7, UniProt P00573). As to the kind of experiment: Colorimetric RNA synthesis / PNP release assay. In kind it is biochemical. As for the experimental part: Production of the PNP-NTP analogs. PNP-GTP and PNP-ATP are made in one high yielding reaction from commercially available starting materials (Scheme 1). When the nucleotide analog is used in RNA synthesis, the β and γ phosphates are released (as pyrophosphate) with the attached PNP. While this compound is colorless, the enzyme alkaline phosphatase rapidly hydrolyzes the pyrophosphates to release PNP, which, at the pH of the polymerase reaction, has a yellow color that absorbs maximally at […]. [drawing 4] […]
PNP-NTPs are useful as continuous reporters for RNA polymerase activity. To simplify the components, transcription reactions were performed in the presence of alkaline phosphatase, a homodeoxycytidylate template that directs the incorporation of only guanylates (named WV-15C), PNP-GTP, and T7 RNA polymerase. The use of homopolymers is well accepted in assessing the activities of viral RNA polymerases, including the HCV RdRp (Lohman et al., 1997. J. Virol., 71, 8416). The reaction was monitored in a spectrometer at […], the maximum absorbance for PNP. […] There were several negative controls in this experiment, all of which yielded minimal PNP release: 1) a reaction without T7 RNA polymerase; 2) a reaction that lacked the essential cofactor, Mg^2+; 3) a reaction that contained homothymidylate (WV-15T), rather than WV-15C. […]

Data set [2] deals with RdRp of bovine viral diarrhea virus (Bovine viral diarrhea virus, UniProt P19711). As to the kind of experiment: RNA synthesis assay. In kind it is biochemical. Particulars: compared with T7 polymerase and brome mosaic virus RdRp results. An excerpt: (§1) PNP-NTPs are useful reporters for the activities of a variety of RNA polymerases. […] PNP release was also observed during RNA synthesis by the SP6 RNA polymerase.

A further data set addresses brome mosaic virus RdRp (Brome mosaic virus, UniProt P03594). As to the kind of experiment: RNA synthesis assay. In kind it is biochemical.
Source text: as §1

Data set [3] is described as follows: Stability of PNP-NTPs in plasma (PNP release, absorbance at 405 nm). From the text:
(§2) To test the effect of more complex, biologically relevant mixtures of enzymes on PNP-NTP stability, blood was collected and centrifuged to remove cells and collect the plasma.

A further data set relates to alkaline phosphatase. Particulars: incubation with alkaline phosphatase, without T7 RNA polymerase.
Source text: as §2

Chain of T7 DNA-dependent RNA polymerase (P00573 whole entry): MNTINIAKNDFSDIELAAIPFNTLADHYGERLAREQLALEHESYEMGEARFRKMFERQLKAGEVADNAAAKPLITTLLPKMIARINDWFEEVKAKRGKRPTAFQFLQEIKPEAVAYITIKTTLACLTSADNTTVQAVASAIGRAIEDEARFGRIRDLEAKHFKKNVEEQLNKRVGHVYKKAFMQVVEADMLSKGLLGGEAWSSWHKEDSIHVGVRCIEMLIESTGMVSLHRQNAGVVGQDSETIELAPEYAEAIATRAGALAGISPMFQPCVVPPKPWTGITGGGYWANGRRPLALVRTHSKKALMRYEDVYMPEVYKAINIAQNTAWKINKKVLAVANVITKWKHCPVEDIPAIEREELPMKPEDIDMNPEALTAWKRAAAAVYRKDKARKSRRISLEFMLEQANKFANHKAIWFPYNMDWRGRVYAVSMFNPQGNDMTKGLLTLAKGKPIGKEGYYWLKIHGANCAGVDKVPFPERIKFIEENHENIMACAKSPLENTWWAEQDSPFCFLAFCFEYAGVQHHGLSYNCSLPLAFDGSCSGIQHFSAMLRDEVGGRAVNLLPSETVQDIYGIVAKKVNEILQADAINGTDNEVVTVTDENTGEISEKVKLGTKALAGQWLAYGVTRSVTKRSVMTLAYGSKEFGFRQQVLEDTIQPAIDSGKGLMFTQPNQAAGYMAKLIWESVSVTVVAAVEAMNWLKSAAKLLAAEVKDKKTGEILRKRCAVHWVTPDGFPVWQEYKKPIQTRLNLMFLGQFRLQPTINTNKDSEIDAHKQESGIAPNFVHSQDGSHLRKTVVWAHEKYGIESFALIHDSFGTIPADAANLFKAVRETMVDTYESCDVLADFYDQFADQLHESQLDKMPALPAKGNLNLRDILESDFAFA
Chain of brome mosaic virus RdRp (P03594 whole entry): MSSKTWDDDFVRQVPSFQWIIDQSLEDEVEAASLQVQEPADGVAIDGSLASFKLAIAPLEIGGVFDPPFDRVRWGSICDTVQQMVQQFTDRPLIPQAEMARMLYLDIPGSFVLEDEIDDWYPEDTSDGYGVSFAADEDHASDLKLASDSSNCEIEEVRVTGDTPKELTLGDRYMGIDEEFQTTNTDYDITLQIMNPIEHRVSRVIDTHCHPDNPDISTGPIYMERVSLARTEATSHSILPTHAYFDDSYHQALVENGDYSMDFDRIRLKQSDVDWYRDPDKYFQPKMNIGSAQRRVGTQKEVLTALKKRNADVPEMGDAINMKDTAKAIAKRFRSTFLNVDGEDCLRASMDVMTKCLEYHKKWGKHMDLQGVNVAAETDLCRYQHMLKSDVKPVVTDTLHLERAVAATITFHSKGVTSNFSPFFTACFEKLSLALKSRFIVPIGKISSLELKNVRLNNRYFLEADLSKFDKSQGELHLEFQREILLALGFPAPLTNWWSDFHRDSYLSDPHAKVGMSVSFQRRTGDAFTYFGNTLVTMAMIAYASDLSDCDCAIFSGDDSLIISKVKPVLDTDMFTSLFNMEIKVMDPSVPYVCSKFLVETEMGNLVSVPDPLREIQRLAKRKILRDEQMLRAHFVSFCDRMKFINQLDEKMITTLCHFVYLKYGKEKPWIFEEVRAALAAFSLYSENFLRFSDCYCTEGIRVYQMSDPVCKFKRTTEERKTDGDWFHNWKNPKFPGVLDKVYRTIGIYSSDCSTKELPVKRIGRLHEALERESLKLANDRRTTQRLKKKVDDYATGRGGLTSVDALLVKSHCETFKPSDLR
Chain of brome mosaic virus RdRp (P03588 whole entry, further chain): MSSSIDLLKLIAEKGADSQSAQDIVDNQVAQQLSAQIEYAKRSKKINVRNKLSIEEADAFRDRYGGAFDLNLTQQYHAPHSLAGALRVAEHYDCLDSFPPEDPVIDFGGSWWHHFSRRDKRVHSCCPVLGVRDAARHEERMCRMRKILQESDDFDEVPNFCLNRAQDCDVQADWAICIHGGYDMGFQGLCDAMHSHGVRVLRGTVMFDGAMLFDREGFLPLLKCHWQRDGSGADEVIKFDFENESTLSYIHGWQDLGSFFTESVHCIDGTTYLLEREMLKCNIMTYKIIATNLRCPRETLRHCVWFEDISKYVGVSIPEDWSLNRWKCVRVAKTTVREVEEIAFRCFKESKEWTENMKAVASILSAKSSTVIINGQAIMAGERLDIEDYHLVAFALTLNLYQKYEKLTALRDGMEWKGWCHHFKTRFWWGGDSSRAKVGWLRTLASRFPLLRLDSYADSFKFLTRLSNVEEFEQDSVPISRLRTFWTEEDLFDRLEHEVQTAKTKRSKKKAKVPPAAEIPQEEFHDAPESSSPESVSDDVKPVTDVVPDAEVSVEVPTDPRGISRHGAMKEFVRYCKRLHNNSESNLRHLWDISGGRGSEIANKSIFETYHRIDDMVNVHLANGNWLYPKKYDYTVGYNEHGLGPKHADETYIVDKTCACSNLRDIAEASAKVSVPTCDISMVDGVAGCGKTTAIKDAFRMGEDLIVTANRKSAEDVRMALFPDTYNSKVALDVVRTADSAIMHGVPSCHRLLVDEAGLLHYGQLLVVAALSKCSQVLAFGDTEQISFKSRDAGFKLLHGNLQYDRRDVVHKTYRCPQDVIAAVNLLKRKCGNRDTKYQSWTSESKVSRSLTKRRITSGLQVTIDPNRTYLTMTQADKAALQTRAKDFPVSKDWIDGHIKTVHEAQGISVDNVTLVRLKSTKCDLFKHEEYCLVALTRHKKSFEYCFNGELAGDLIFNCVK
Chain of RdRp of bovine viral diarrhea virus (P19711 3270-3988): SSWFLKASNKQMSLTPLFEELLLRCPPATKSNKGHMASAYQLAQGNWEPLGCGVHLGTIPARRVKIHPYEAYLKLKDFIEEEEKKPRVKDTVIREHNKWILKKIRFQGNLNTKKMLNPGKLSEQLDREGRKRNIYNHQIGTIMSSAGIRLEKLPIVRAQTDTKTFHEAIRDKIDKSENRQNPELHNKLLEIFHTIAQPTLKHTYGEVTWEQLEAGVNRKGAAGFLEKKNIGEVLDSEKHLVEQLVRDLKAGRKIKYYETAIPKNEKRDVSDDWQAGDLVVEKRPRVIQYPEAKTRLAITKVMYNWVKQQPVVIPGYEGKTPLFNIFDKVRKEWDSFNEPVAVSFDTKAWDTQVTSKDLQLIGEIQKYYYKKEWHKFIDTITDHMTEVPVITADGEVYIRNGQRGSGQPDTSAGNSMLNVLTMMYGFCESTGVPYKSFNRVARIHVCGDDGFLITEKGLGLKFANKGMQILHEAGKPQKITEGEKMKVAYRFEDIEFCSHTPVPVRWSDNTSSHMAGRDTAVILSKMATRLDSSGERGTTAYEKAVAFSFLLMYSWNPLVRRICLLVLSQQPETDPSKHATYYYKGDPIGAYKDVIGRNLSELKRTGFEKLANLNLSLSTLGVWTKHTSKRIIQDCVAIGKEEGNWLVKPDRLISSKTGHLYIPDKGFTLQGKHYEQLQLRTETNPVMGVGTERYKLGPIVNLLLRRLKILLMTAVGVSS

Turning to `Nc1nc2c(ncn2[C@@H]2O[C@H](COP(=O)(O)OP(=O)(O)OP(=O)(O)Oc3ccc([N+](=O)[O-])cc3)[C@@H](O)[C@H]2O)c(=O)[nH]1` [PNP-GTP, Guanosine-5′-(γ-4-nitrophenyl)triphosphate], the “substrate for the polymerase” value (in data set [1]; on brome mosaic virus RdRp) was “suitable substrate” throughout. Further, in data set [1] (alkaline phosphatase, WV-15C homodeoxycytidylate template, monitored at 405 nM), the “increase in absorbance due to PNP release” value was “linear over a two-hour period”. For the same molecule, the “RNA synthesis directed when used in place of GTP” value is recorded as “levels similar to reactions containing normal GTP” in data set [1] (compared with normal GTP), “Identical results” in data set [2] and “levels similar to reactions containing normal GTP” at brome mosaic virus RdRp (compared with normal GTP). In data set [1] (complete transcription reaction with cognate template, 3 h after start), the “absorbance higher than background” value was above 7 fold. In addition, the absorbance vs background result in data set [1] (ten minutes after start, alkaline phosphatase, WV-15C template, 405 nM) was “absorbance at levels distinctly above background”. Also, the “absorbance at 405 nm” value in data set [3] (plasma to 10% final volume, 7 h incubation) is “did not increase the absorbance at 405 nm”. Moreover, the PNP levels result in data set [3] (plasma with alkaline phosphatase, polymerase and noncognate template, 7 hours) is on record as “increased PNP levels slightly”. Further, the “PNP release / resistance to phosphatases” value in the data set on alkaline phosphatase is on record as “did not result in PNP release”.
Turning to `Nc1ncnc2c1ncn2[C@@H]1O[C@H](COP(=O)(O)OP(=O)(O)OP(=O)(O)Oc2ccc([N+](=O)[O-])cc2)[C@@H](O)[C@H]1O` [PNP-ATP, Adenosine-5′-(γ-4-nitrophenyl)triphosphate], the “increase in absorbance at 405 nm” value in data set [1] (homothymidylate template) was “linear increase”. The “trends in plasma reactions” value in data set [3] (WV-15T template, compared with PNP-GTP results) is reported as “Identical trends”.
